Marks after values point to notes of the source that are not given here.
Legend:
Type in all cases: in vivo, Gallus gallus
[1] = tested on: SI (Sucrose isomaltase); assay: Gene expression (RT-PCR), SI; settings: at hatch; b175: compared with the no injection and 5% inulin control groups; b192: comparator not stated; p<0.05
Description: (§1) The pure resveratrol and pterostilbene were individually diluted in 18 MΩ H2O. The intra-amniotic administration followed the methodology previously described. On the 17th day of embryonic development, the eggs with viable embryos (n=60) were randomly allocated into 6 groups (n=10) with a similar weight frequency distribution. For the intra-amniotic treatment, 1 mL of solution per egg was injected into the amniotic fluid (via candling) with the aid of a 21-gauge needle. […]
(§2) The RNA was isolated as described previously (RNeasy Mini Kit, Qiagen Inc., Valencia, CA, USA), and 30 mg of the duodenal tissue or liver tissue (n =8) was used to extract the total RNA. […] Finally, the RNA was eluted in 50 μL of RNase-free water and quantified by absorbance at 260 and 280 nm.
(§3) RT-PCR was conducted as described. […] The cDNA content was assessed by absorbance at 260 and 280 nm, with an extinction coefficient of 33 (single-stranded DNA). Genomic DNA contamination was evaluated via a real-time RT-PCR assay for the reference gene samples [17,18,30]. […]
(§4) The procedures were performed as previously published. […] The optimal MgCl2 concentration achieved, for each reaction, an amplification plot (lowest cycle product, Cp), the uppermost fluorescence intensity and the steepest amplification slope. […]

[2] = Body weight, cecum weight and cecum:body weight ratio; settings: intra-amniotic 1 mL/egg on day 17; at hatch (day 21); mean ± SEM, n=8
Description: The pure resveratrol and pterostilbene were individually diluted in 18 MΩ H2O. The intra-amniotic administration followed the methodology previously described. On the 17th day of embryonic development, the eggs with viable embryos (n=60) were randomly allocated into 6 groups (n=10) with a similar weight frequency distribution. For the intra-amniotic treatment, 1 mL of solution per egg was injected into the amniotic fluid (via candling) with the aid of a 21-gauge needle. After the procedure, the injection sites were sealed with cellophane tape, and the eggs were distributed into six groups: (1) no injection; (2) 18 MΩ H2O; (3) 5% inulin; (4) 5% resveratrol; (5) 5% pterostilbene; and (6) synergistic: 4.75% resveratrol and 0.25% pterostilbene. […] The eggs were equally distributed in each incubator location to reduce possible allocation bias. Upon hatching (21 days), the hatchlings were euthanized by CO2 exposure, and the blood, liver, heart, pectoral muscle, small intestine and cecum were obtained.

[3] = tested on: AP (Aminopeptidase); assay: Gene expression (RT-PCR), AP; settings: at hatch; b175: relative to the 18 MΩ M2O and 5% inulin control groups; b192: comparator not stated; p<0.05
Description: as §1, §2, §3, §4

- SI relative expression [1]: down regulated
- AP relative expression [3]: downregulated
SMILES: Oc1ccc(C=Cc2cc(O)cc(O)c2)cc1 [5% Resveratrol, Resveratrol]
- Body Weight Average (g) [2]: 47.1 ± 1.4^a g
- Cecum Weight Average (g) [2]: 0.6 ± 0.0^a g
- Cecum:Body Weight Ratio [2]: 0.013 ± 0.001^a
